From patent US11065311B2, “Retroviral vector with mini-promoter cassette” (DENOVO BIOPHARMA LLC, priority 2012, dated 2021)

System: U87 cells
Conditions: MTS
Method: Cell were seeded at 3E3 cells in 96-well plates the day before. At 24 hour post cell seeding, PALA at 0.00975, 0.039, 0.156, 0.625, 2.5, 10, 40 and 160 uM were added to the culture for 5 consecutive days followed by an MTS assay to determine the cell viability. […] A range of cytosine concentrations (0.2, 1, 5 10 mM) in culture was also determined by performing the same experiment described above.

Molecule	tolerance of cells to cytosine (0.2, 1, 5 10 mM cytosine in culture)	IC50 (read-out: ICH of PALA, naive U87, U87 with pAC3-yCD2 and with pAC3.S1-yCD2, 5 consecutive days)
Nc1cc[nH]c(=O)n1 [cytosine]	tolerate cytosine in all concentrations tested	
N-(phosphonacetyl)-L-aspartate [PALA]		8 to 30 µM
